In patent US8906884B2, “Method of treating graft-rejection using dextran sulfate” (TX Medic AB, priority 2002, dated 2014):
Like-named read-outs stand apart in the source and are kept apart here.

Tests used:
[1] = tested on: clot formation induced by API in human blood; details: for Clot formation / clotting time versus no additives: 0.01 and 0.1 mg/ml, in words
Procedure: Blood was drawn from four healthy volunteers into Vacutainer™ tubes containing citrate. Whole blood (980 μl) was incubated with 2 μl of API at 37° C. in polypropylene sample cups in a ReoRox™ rheometer (Global Haemostasis International, Gothenburg, Sweden). […] Every 6 s, the cup was set into free torsional oscillation around its vertical axis, and the damping and frequency of the oscillation was registered. Clotting time was identified as the point of maximal damping.

[2] = tested on: IBMIR triggered by API in fresh human blood
Procedure: (§1) This protocol is basically performed as previously described with some modifications. In general words, loops made of PVC (diameter 6.3 mm, length 390 mm), whose inner surface was furnished with immobilized heparin, were used. The tubing was held together with a specially designed heparinized connector. A circular loop was formed when the ends of the connector were tightly pushed into the lumen of the tubing ends. A rocking apparatus, placed in a 37° C. incubator, was used to generate blood flow inside the loops. The loops were rocked at a setting that prevented the blood from coming in contact with the connectors.
(§2) Seven 60-min islet experiments were performed, using API isolated from four different pigs. […] For each experiment, one loop containing fresh human blood and saline without API was included as a control. […] Concurrently, pre-incubation of human blood with 1 mg/ml of LMW-dextran, which was not sulfated, was tested in five experiments. In each experiment, 7 ml of fresh human blood from the same donor was added to each loop. […] Thereafter, the loops were opened, and 100 μl of saline with or without 5 μl of API (approximately 5,000 IEQ) was added to the loops and followed by another 60-min incubation on the rocking device at 37° C. Blood glucose levels were measured with a glucometer (Glucometer Elite; Bayer Diagnostics, Leverkusen, Germany) before the perfusion.
After every perfusion, the loop contents were filtered through 70 μm-diameter filters (Filcons, Cuptype; DAKO, Denmark). Both macroscopic blood clots and tissue recovered on the filters were snap-frozen in isopentane for immunohistochemical staining. The remaining filtered blood was collected in 4.1 mM EDTA (final concentration) and used for hematological analysis (platelets, lymphocytes, monocytes, and granulocytes) and assays of coagulation activation (thrombin-antithrombin [TAT], factor XIa-antithrombin complexes [FXIa-AT], and factor XIIa-antithrombin complexes [FXIIa-AT]), fibrinolysis activation (plasmin-alpha 2 antiplasmin complexes [PAP]), complement activation (C3a and sC5b-9), and C1 esterase inhibitor activation (factor XIa-C1 esterase inhibitor [FXIa-C1 INH], factor XIIa-C1 esterase inhibitor [FXIIa-C1 INH]). Samples taken at 0, 15, and 30 min were also analyzed. In 0-min samples, the blood was not added to the tubing loop but was instead transferred immediately to the EDTA-containing tubes. The blood samples were centrifuged at 4° C. at 3290×g for 20 min, and the plasma was collected and stored at −70° C. until analyzed.
Platelet counts and differential leukocyte counts were analyzed on a Coulter ACT-diff analyzer (Beckman Coulter, Fla., USA) using EDTA-treated blood. TAT and PAP were quantified using commercially available enzyme immunoassays (EIA) kits (Enzygnost TAT, Behringswerke, Marburg, Germany; Imuclone® PAP, American Diagnostica Inc., Greenwich, USA). FXIa-AT, FXIIa-AT, FXIa-C1 INH, and FXIIa-C1 INH were analyzed according to the method of Sanchez et al.. C3a was analyzed as previously described by Nilsson Ekdahl et al., and sC5b-9 was analyzed using a modification of the EIA described by Mollnes et al..

[3] = tested on: Porcine aortic endothelial cells; details: 25 mg/ml, in words; cited from earlier work
[4] = tested on: porcine islets transplanted into diabetic athymic mice
Procedure: (§3) After being cultured for 4 days, 5 μl of API (˜5000 IEQs) from five isolations were transplanted into the liver via the portal vein of 11 male inbred diabetic athymic mice, which were anesthetized during surgery with isoflurene. […] Six (untreated) mice were injected with an equivalent volume of saline in the same manner.
(§4) Islets were sectioned and subsequently stained with horseradish peroxidase (HRP) conjugated mouse anti-human CD41a (R&D Systems, Abigdon, UK) and anti-CD11b^+ (Clone 2LPM 19c, DAKO, Carpinteria, Calif., USA). In the in vivo study, the API-containing mouse livers were retrieved 10 days after transplantation and snap-frozen in isopentane. The samples were sectioned and stained with guinea pig anti-insulin (DAKA, Carpinteria, Calif., USA) and rat anti-mouse CD11b^+ (Serotec Ltd. Scandinavia, Oslo, Norway).

[5] = tested on: porcine islets perfused with human blood
Procedure: as §1, §2, §4

complement system = details: FIG. 3, in words
Procedure: At 5, 10, 15, 30, 45, and 60 min after serum incubation at 37° C., 100 μl of serum was transferred to tubes containing 10 mM EDTA. These samples were stored at −70° C. before analysis of the complement components C3a and sC5b-9.
Filled bars represent generation of C3a and unfilled correspond to sC5b-9.

[6] = tested on: API graft in diabetic athymic mice; details: implantation site liver, i.v. treatment, n = 5; duration of normoglycemia
Procedure: Diabetes was induced in athymic mice by intravenous (i.v.) injection of steptozotocin from Sigma Chemicals (Palo Alto, Calif., USA) according to Wennberg et al.. The steptozotocin dose was 250 mg/kg body weight for the athymic mice. An animal was considered diabetic if its blood glucose (B-glucose) level exceeded 20 mmol/l (>360 mg/dl) for 2 or more consecutive days.
as §3
Blood glucose levels were measured in blood obtained from tails of recipients using a Glucometer Elite® B-glucose measuring instrument (Bayer AB, Gothenburg, Sweden). Measurements were taken daily before 12 am and expressed as mmol/l (1 mmol/l≈18 mg/dl). Loss of graft function was considered to have occurred if B-glucose levels exceeded 11.1 mmol/l (>200 mg/dl) for 2 or more consecutive days. Post-transplant duration of normoglycemia (<200 mg/dl) was defined as the graft survival period.

[7] = cited from earlier work
[8] = tested on: STZ-induced diabetic mice; details: intraperitoneal, intrahepatic islets, in words; cited from earlier work
pig lungs = details: 2 mg/ml; HAR after 30 min without; cited from earlier work
[9] = Table 4 comparison, 60 min API perfusion, 1 mg/ml, n = 5
[10] = after 60 min perfusion, API with 0.01 mg/ml, n = 7
[11] = after 60 min perfusion, API with 0.1 mg/ml, n = 7
[12] = after 60 min perfusion, API with 1 mg/ml, n = 7
[13] = continuous injection about 45 mg/hour, in words

Substance: Low molecular weight dextran [LMW-D, reference compound]
- Clot formation / clotting time versus no additives [1]: extended the clotting time to only a minor degree
- Clotting time ([1]; experiment 1, 0.01 mg/ml): 19.2 min
- Clotting time ([1]; experiment 1, 0.1 mg/ml): 25.2 min
- Clotting time ([1]; experiment 2, 0.01 mg/ml): 11.3 min
- Clotting time ([1]; experiment 2, 0.1 mg/ml): 25.8 min
- Effect on IBMIR ([2]; 1 mg/ml, 60 min API perfusion, in words): only a marginal effect
- C3a [2, 9]: 1490.3 ± 406.4 ng/mL
- FXIa-AT [2, 9]: 1.09 ± 0.08 µmol/L
- Granulocytes (×10^9/l) [2, 9]: 1.90 ± 0.43 ×10^9/l
- Lymphocytes (×10^9/l) [2, 9]: 2.14 ± 0.32 ×10^9/l
- Monocytes (×10^9/l) [2, 9]: 0.29 ± 0.08 ×10^9/l
- Platelets (×10^9/l) [2, 9]: 44.9 ± 18.7 ×10^9/l
- TAT [2, 9]: 4429.2 ± 2002.5 µg/mL
- sC5b-9 (AU/ml) [2, 9]: 157.3 ± 19.1 AU/ml

Substance: CMDB25 dextran sulfate
- Complement activation and cytolytic complex deposition on the cells [3]: inhibited

Substance: Low molecular weight dextran sulfate [LMW-DS]
- Frequency of clot formation and intensity of leukocyte infiltration versus untreated recipients ([4]; p=0.034, in words): significantly lower
- Islets entrapped in clots ([4]; treated mice, FIG. 9, in words): only a few islets
- Infiltrating CD11b+ (MAC-1+) cells ([4]; treated mice, FIG. 11, in words): markedly fewer
- Clot formation / clotting time versus no additives [1]: totally abrogated
- Clotting time ([1]; experiment 1, 0.01 mg/ml): >60 min
- Clotting time ([1]; experiment 1, 0.1 mg/ml): >60 min
- Clotting time ([1]; experiment 2, 0.01 mg/ml): >60 min
- Clotting time ([1]; experiment 2, 0.1 mg/ml): >60 min
- Clotting time ([1]; experiment 3, 0.01 mg/ml): >60 min
- Clotting time ([1]; experiment 3, 0.1 mg/ml): >60 min
- Clotting time ([1]; experiment 4, 0.01 mg/ml): >60 min
- Clotting time ([1]; experiment 4, 0.1 mg/ml): >60 min
- Number of infiltrating CD11b+ cells ([5]; 1 mg/ml, 60 min, FIG. 5, in words): decreased considerably
- Clot formation around islets ([5]; 1 mg/ml, 60 min, in words): complete inhibition
- Layer of platelets adhering to the islets ([5]; FIG. 7, in words): much thinner layer
- Generation of C3a ([2]; 0.01 mg/ml, FIG. 1, in words): significantly reduces
- Coagulation activation products TAT, FXIa-AT and FXIIa-AT ([2]; 0.01 mg/ml, in words): suppressed
- PAP ([2]; 0.01 mg/ml, in words): significantly suppressed
- Generation of C3a and membrane attack complex sC5b-9 ([2]; 0.1 mg/ml and 1 mg/ml, FIGS. 1 and 2, in words): totally inhibits
- C3a [2, 9]: 171.5 ± 72.4 ng/mL
- FXIa-AT [2, 9]: 1.56 ± 0.82 µmol/L
- Granulocytes (×10^9/l) [2, 9]: 3.23 ± 0.21 ×10^9/l
- Lymphocytes (×10^9/l) [2, 9]: 1.94 ± 0.12 ×10^9/l
- Monocytes (×10^9/l) [2, 9]: 0.38 ± 0.10 ×10^9/l
- Platelets (×10^9/l) [2, 9]: 181.1 ± 16.3 ×10^9/l
- TAT [2, 9]: 12.8 ± 4.9 µg/mL
- sC5b-9 (AU/ml) [2, 9]: 41.6 ± 11.5 AU/ml
- C3a [2, 10]: 630.6 ± 103.4 ng/mL
- FXIIa-AT [2, 10]: 0.08 ± 0.02 µmol/L
- FXIIa-C1 inh [2, 10]: 0.10 ± 0.03 µmol/mL
- FXIa-AT [2, 10]: 0.13 ± 0.01 µmol/L
- Granulocytes (×10^9/l) [2, 10]: 2.20 ± 0.40 ×10^9/l
- Lymphocytes (×10^9/l) [2, 10]: 1.90 ± 0.11 ×10^9/l
- Monocytes (×10^9/l) [2, 10]: 0.48 ± 0.10 ×10^9/l
- PAP [2, 10]: 398.2 ± 60.7 ng/mL
- Platelets (×10^9/l) [2, 10]: 108.2 ± 12.9 ×10^9/l
- TAT [2, 10]: 645.3 ± 177.4 µg/mL
- sC5b-9 (AU/ml) [2, 10]: 151.4 ± 27.9 AU/ml
- C3a [2, 11]: 191.7 ± 36.6 ng/mL
- FXIa-AT [2, 11]: 0.08 ± 0.01 µmol/L
- Granulocytes (×10^9/l) [2, 11]: 2.80 ± 0.50 ×10^9/l
- Lymphocytes (×10^9/l) [2, 11]: 1.91 ± 0.12 ×10^9/l
- Monocytes (×10^9/l) [2, 11]: 0.40 ± 0.07 ×10^9/l
- Platelets (×10^9/l) [2, 11]: 146.1 ± 8.1 ×10^9/l
- TAT [2, 11]: 61.0 ± 8.6 µg/mL
- sC5b-9 (AU/ml) [2, 11]: 61.9 ± 6.5 AU/ml
- C3a [2, 12]: 215.6 ± 52.2 ng/mL
- FXIa-AT [2, 12]: 1.17 ± 0.41 µmol/L
- Granulocytes (×10^9/l) [2, 12]: 2.92 ± 0.37 ×10^9/l
- Lymphocytes (×10^9/l) [2, 12]: 1.89 ± 0.10 ×10^9/l
- Monocytes (×10^9/l) [2, 12]: 0.31 ± 0.05 ×10^9/l
- Platelets (×10^9/l) [2, 12]: 162.3 ± 8.9 ×10^9/l
- TAT [2, 12]: 15.0 ± 5.6 µg/mL
- sC5b-9 (AU/ml) [2, 12]: 53.9 ± 7.1 AU/ml
- Coagulation and complement activation ([2]; dose-dependent, in words): reduced
- Blood cell consumption ([2]; in words): inhibited
- Macroscopic clotting ([2]; in words): prevented
- FXIIa-C1 INH ([2]; presence or absence of LMW-DS, in words): did not change
- Generation of C3a and sC5b-9 in human serum (complement system; 0.01 mg/ml): increased generation
- Generation of C3a and sC5b-9 in human serum (complement system; 1 mg/ml): inhibitory effect
- Mean graft survival [6]: 8.8 ± 1.9 days

Substance: Native dextran
- Complement activation and cytolytic complex deposition on the cells [3]: no such an effect

Substance: dextran sulfate [dextran sulfate (MW 8 000 Da)]
- Blood concentration ([7]; continuous injection about 45 mg/hour for 2-3 weeks): approximately 0.01 mg/ml
- Alopecia [7, 13]: reported in about half of the patients
- Thrombocytopenia [7, 13]: observed after 3 days treatment

Substance: dextran sulfate
- Effect of dextran sulfate alone on hyperglycemia [8]: some beneficial effect in a few mice
- Lung survival (pig lungs): about 200 min

Substance: High molecular weight dextran sulfate [HMW-DS]
- Clot formation / clotting time versus no additives [1]: inhibited clot formation only at 0.1 mg/ml
- Clotting time ([1]; experiment 1, 0.01 mg/ml): 15.8 min
- Clotting time ([1]; experiment 1, 0.1 mg/ml): >60 min
- Clotting time ([1]; experiment 2, 0.01 mg/ml): 36.9 min
- Clotting time ([1]; experiment 2, 0.1 mg/ml): >60 min
- Clotting time ([1]; experiment 3, 0.01 mg/ml): 21.0 min
- Clotting time ([1]; experiment 3, 0.1 mg/ml): >60 min
- Clotting time ([1]; experiment 4, 0.01 mg/ml): 38.3 min
- Clotting time ([1]; experiment 4, 0.1 mg/ml): >60 min

Substance: high molecular weight dextran [HMW-D, reference compound]
- Clot formation / clotting time versus no additives [1]: extended the clotting time to only a minor degree
- Clotting time ([1]; experiment 1, 0.01 mg/ml): 19.8 min
- Clotting time ([1]; experiment 1, 0.1 mg/ml): 14.2 min
- Clotting time ([1]; experiment 2, 0.01 mg/ml): 13.8 min
- Clotting time ([1]; experiment 2, 0.1 mg/ml): 33.2 min
